Assay results: patent publication US4102917A, “Substituted phenyl naphthalenesulfonic acids” (American Cyanamid Company, priority 1977, dated 1978)
Where a name gives a salt, the structure may show the parent alone.

What was measured:
human serum = conditions: in vitro and in vivo, literature; cited from earlier work
complement system = conditions: literature; cited from earlier work
shunt pathway = assay: Test, Code 036 (C-Shunt inhibitor), lysis of human erythrocytes via shunt pathway activated by cobra venom factor; type: cell-based; conditions: activity in wells, two-fold serial dilution assay; higher well number indicates higher activity
Description: (§1) An active inhibitor protects C2 from C1 and C4; (ii) Test, Code 035 (C3-C9 inhibitor) -- This test determines the ability of the late components of human complement (C3-C9) to lyse EAC 142 in the presence of appropriate dilutions of the test compound. An active inhibitor protects EAC 142 from lysis by human C3-C9; (iii) Test, Code 036 (C-Shunt inhibitor) -- In this test human erythrocytes rendered fragile are lysed in autologous serum via the shunt pathway activated by cobra venom factor in the presence of appropriate dilutions of the test compound. Inhibition of the shunt pathway results in failure of lysis; (iv) Forssman Vasculitis Test -- Here, the well known complement dependent lesion, Forssman vasculitis, is produced in guinea pigs by intradermal injection of rabbit anti-Forssman antiserum. […]

[1] = tested on: late components of human complement (C3-C9); assay: Test, Code 035 (C3-C9 inhibitor), lysis of EAC 142; type: cell-based; conditions: activity in wells, two-fold serial dilution assay; higher well number indicates higher activity; N=Negative
Description: as §1

human C1 = assay: Test, Code 026 (C1 inhibitor); type: biochemical; conditions: activity in wells, two-fold serial dilution assay; higher well number indicates higher activity
Description: as §1

[2] = tested on: hereditary angioneurotic edema; conditions: literature; cited from earlier work
whole complement = assay: Complement Level Reduction Test (in vivo activity, guinea pig); conditions: 200 mg/kg
Description: An active inhibitor protects C2 from C1 and C4; (ii) Test, Code 035 (C3-C9 inhibitor) -- This test determines the ability of the late components of human complement (C3-C9) to lyse EAC 142 in the presence of appropriate dilutions of the test compound. An active inhibitor protects EAC 142 from lysis by human C3-C9; (iii) Test, Code 036 (C-Shunt inhibitor) -- In this test human erythrocytes rendered fragile are lysed in autologous serum via the shunt pathway activated by cobra venom factor in the presence of appropriate dilutions of the test compound. Inhibition of the shunt pathway results in failure of lysis; (iv) Forssman Vasculitis Test -- Here, the well known complement dependent lesion, Forssman vasculitis, is produced in guinea pigs by intradermal injection of rabbit anti-Forssman antiserum. The lesion is measured in terms of diameter, edema and hemorrhage and the extent to which a combined index of these is inhibited by prior intraperitoneal injection of the test compound at 200 mg/kg is then reported, unless otherwise stated; (v) Forssman Shock Test -- Lethal shock is produced in guinea pigs by an i.v. injection of anti-Forssman antiserum and the harmonic mean death time of treated guinea pigs is compared with that of simultaneous controls; (vi) Complement Level Reduction Test -- In this test, the above dosed guinea pigs, or others, are bled for serum and the complement level is determined in undiluted serum by the capillary tube method of U.S. Pat. No. 3,876,376 and compared to undosed control guinea pigs; and (vii) Cap 50 Test -- Here, appropriate amounts of the test compound are added to a pool of guinea pig serum in vitro, after which the undiluted serum capillary tube assay referred to above is run. The concentration of compound inhibiting 50 % is reported.
With reference to Table I, guinea pigs weighing about 300 g were dosed intravenously (i.v.) or intraperitoneally (i.p.) with 200 mg/kg of the test compound dissolved in saline and adjusted to pH 7-8. […] The serum was tested for whole complement using the capillary tube assay. Percent inhibition was calculated by comparison with simultaneous controls. The results appear in Table I together with results of tests, code 026, 035, 036, Cap 50, % inhibition and Forssman shock.

## pentosan-poly-sulfoester
Human serum
  anticomplementary activity, reduction in the total hemolytic complement activity: anticomplementary activity on human serum both in vitro and in vivo

## Nc1ccc2cc(S(=O)(=O)O)cc(O)c2c1N=Nc1ccc(NC(=O)Nc2ccc(N=Nc3c(N)ccc4cc(S(=O)(=O)O)cc(O)c34)c(S(=O)(=O)O)c2)cc1S(=O)(=O)O [chlorazol fast pink, 3,3'-ureylenebis-[6-(2-amino-8-hydroxy-6-sulfo-1-naphthylazo)]benzenesulfonic acid, tetrasodium salt]
Complement system
  anticomplementary effect / complement inhibition: reported to have an anticomplementary effect

## O=C(O)c1cc(NC(=O)c2cc(NC(=S)Nc3cc(S(=O)(=O)O)cc4cc(S(=O)(=O)O)cc(S(=O)(=O)O)c34)cc(C(=O)Nc3cc(C(=O)O)cc(C(=O)O)c3)c2)cc(C(=O)O)c1 [5,5'-{{5-[2-Thio-3-(3,6,8-trisulfo-1-naphthyl)ureido]-1,3-phenylene}bis(carbonylimino)}diisophthalic acid heptasodium salt]
Shunt pathway
  Shunt Inhibition 036 Wells: +1 Wells
[1]
  C-Late 035 Wells: N
Human C1
  C1 026 Wells: +5 Wells

## NC[C@H]1CC[C@H](C(=O)O)CC1 [tranexamic acid]
[2]
  use in the treatment of hereditary angioneurotic edema: used with success in the treatment of hereditary angioneurotic edema

## O=C(Nc1cc(S(=O)(=O)[O-])cc2cc(S(=O)(=O)[O-])cc(S(=O)(=O)[O-])c12)c1cc(NC(=S)Nc2cc(S(=O)(=O)[O-])cc3cc(S(=O)(=O)[O-])cc(S(=O)(=O)[O-])c23)cc(C(=O)Nc2cc(S(=O)(=O)[O-])cc3cc(S(=O)(=O)[O-])cc(S(=O)(=O)[O-])c23)c1.[Na+].[Na+].[Na+].[Na+].[Na+].[Na+].[Na+].[Na+].[Na+] [8-{3-[3,5-Bis(3,6,8-trisulfo-1-naphthylcarbamoyl)phenyl] -2-thioureido}-1,3,6-naphthalenetrisulfonic acid nonasodium salt]
[1]
  C-Late 035 Wells: +1 Wells
Whole complement; i.p., 30 min
  In Vivo Activity (Guinea Pig) % Inhibition, Intraperitoneal, 30 min: -50%
Whole complement; i.p., 60 min
  In Vivo Activity (Guinea Pig) % Inhibition, Intraperitoneal, 60 min: -57%
Whole complement; i.p., 120 min
  In Vivo Activity (Guinea Pig) % Inhibition, Intraperitoneal, 120 min: -74%
Whole complement; i.v., 2 min
  In Vivo Activity (Guinea Pig) % Inhibition, Intravenous, 2 min: -97%
Whole complement; i.v., 30 min
  In Vivo Activity (Guinea Pig) % Inhibition, Intravenous, 30 min: -79%
Whole complement; i.v., 120 min
  In Vivo Activity (Guinea Pig) % Inhibition, Intravenous, 120 min: -58%

## Cc1ccc(C(=O)Nc2ccc(S(=O)(=O)O)c3cc(S(=O)(=O)O)cc(S(=O)(=O)O)c23)cc1NC(=O)c1cccc(NC(=O)Nc2cccc(C(=O)Nc3cc(C(=O)Nc4ccc(S(=O)(=O)O)c5cc(S(=O)(=O)O)cc(S(=O)(=O)O)c45)ccc3C)c2)c1 [Suramin]
[2]
  use in the treatment of hereditary angioneurotic edema: used with success in the treatment of hereditary angioneurotic edema
Complement system
  anticomplementary effect / complement inhibition: competitive inhibitor of the complement system

## NCCCCCC(=O)O [epsilon-aminocaproic acid]
[2]
  use in the treatment of hereditary angioneurotic edema: used with success in the treatment of hereditary angioneurotic edema

## heparin
Complement system
  anticomplementary effect / complement inhibition: reported to have an anticomplementary effect
